This passage reports IC50 and Ki results from US10695334B2, “Heteroaromatic carboxamide derivatives as plasma kallikrein inhibitors” (Boehringer Ingelheim International GmbH, priority 2018, dated 2020).

What all share (assay type): biochemical
For experiment [1], the target named is T1, Human PKK (Homo sapiens (Human), UniProt P03952). Put plainly: Inhibition of PKK, endpoint assay (human PKK). The following applies: substrate H-Pro-Phe-Arg-AMC, 1 h room temperature. The procedure: Subsequently, PPACK II (Calbiochem) was added as a stop solution to achieve a final concentration of 1 μM and fluorescence was measured using an Envision Reader (PerkinElmer) with the wavelength excitation setting of 355 nm and the wavelength emission setting of 460 nm.
T1 sequence (P03952 391-638): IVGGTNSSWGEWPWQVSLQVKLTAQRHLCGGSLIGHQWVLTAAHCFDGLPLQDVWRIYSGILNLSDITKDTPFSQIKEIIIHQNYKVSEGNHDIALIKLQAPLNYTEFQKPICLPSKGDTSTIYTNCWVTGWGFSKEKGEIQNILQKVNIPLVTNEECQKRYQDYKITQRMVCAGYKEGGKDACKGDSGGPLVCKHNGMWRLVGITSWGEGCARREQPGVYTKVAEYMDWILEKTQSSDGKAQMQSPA
T1 sequence (P03952 20-390 partner): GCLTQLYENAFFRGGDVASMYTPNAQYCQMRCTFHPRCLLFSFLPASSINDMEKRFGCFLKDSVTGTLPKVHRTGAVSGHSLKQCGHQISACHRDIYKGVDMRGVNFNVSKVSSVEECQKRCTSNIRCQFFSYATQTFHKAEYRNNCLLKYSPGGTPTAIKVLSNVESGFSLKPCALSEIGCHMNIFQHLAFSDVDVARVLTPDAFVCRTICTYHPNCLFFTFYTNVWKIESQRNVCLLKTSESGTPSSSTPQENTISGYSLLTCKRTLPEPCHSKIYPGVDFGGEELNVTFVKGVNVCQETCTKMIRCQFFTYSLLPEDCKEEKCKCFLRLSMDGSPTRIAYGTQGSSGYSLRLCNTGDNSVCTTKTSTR

The target of experiment [2] is T1, Human PKK. Put plainly: Inhibition of PKK (Ki), kinetic assay. The following applies: 24° C., IC50 corrected for KM. The procedure:
Measurements were performed in a kinetic interval every 2nd minute for 16 min using a Spectramax M5 (Molecular Devices) with the following settings of the wavelength excitation of 350 nm and wavelength emission of 450 nm. The number of the compound corresponds to the number of the Example in the experimental section.
The pIC50 values were then fitted using a four-parametric fitting procedure using GraphPad Prism (version 6; GraphPad Software, Inc.).
(§1) Where the IC50 is in molar and the KM value in mM.

The next experiment addresses human TK1 (Homo sapiens (Human), UniProt P06870). Briefly: Inhibition of TK1 (Ki). The note with it: column head prints IC50, text above the table says Ki values. How it is done: The ability of compounds of formula (I) to inhibit plasma kallikrein (PKK), Factor Xlla (FXIIa), Factor Xla (FXIa), Factor Xa (FXa), Factor Ila (alpha-thrombin; FIIa), plasmin, trypsin, tissue kallikrein 1 (TK1), Factor VIIa (FVIIa), or FVIIa complexed with Tissue Factor, phospholipids and CaCl2 (FVIIa/TF/PL/CaCl2) was determined using the following biochemical assays in assay buffer (100 mM Tris, 150 mM NaCL, adjusted to a pH of 7.8 with HCl, and containing 0.1% (w/v) BSA and 0.05% (v/v) Tween20) in the presence of 1% (v/v) DMSO: EVALUATION OF THE INHIBITION OF PKK USING AN ENDPOINT ASSAY Human PKK (0.01 U/mL; Enzyme Research Laboratories) or rat PKK (0.625 nM; produced in-house) was incubated for 1 h at room temperature with 0.10 μM fluorogenic substrate H-Pro-Phe-Arg-AMC (11295 from Bachem) and various concentrations of the test compound in assay buffer. Subsequently, PPACK II (Calbiochem) was added as a stop solution to achieve a final concentration of 1 μM and fluorescence was measured using an Envision Reader (PerkinElmer) with the wavelength excitation setting of 355 nm and the wavelength emission setting of 460 nm.
Prior to the assay, human TK1 (R&D Systems) was activated by incubation with human trypsin (Calbiochem) in a 1:10,000 ratio for 15 min at 37° C. For assaying TK1 inhibitory activity, activated TK1 (31.25 nM or 1 U/mL) was incubated at 24° C. with 0.1 mM fluorogenic substrate H-Pro-Phe-Arg-AMC (11295 from Bachem) and various concentrations of the test compound in assay buffer. Measurements were performed in a kinetic interval every 2nd minute for 16 min using a Spectramax M5 (Molecular Devices) with the following settings of the wavelength excitation of 350 nm and wavelength emission of 450 nm.
The average Vmax values for the time interval from 2 to 12 min after initiation of the assay (expressed as either delta OD/min for assays using a chromogenic substrate or delta RFU/min for assays using a fluorigenic substrate, respectively) were plotted versus the Log of the concentration in molar of the evaluated inhibitor compound. The pIC50 values were then fitted using a four-parametric fitting procedure using GraphPad Prism (version 6; GraphPad Software, Inc.). Respective Ki values were obtained by correction of the IC50 values for the respective KM value of the used substrate (see Table A for the obtained KM values of the used substrates) using the following formula: […]
as §1

human TK1, sequence (P06870 25-262): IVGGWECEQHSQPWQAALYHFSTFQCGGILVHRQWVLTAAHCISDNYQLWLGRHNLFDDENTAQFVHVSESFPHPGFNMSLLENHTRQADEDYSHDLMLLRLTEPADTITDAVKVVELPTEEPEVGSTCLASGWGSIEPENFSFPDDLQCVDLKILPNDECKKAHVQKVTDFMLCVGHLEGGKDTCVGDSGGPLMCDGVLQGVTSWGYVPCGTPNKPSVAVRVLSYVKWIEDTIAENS

The IC50 is the midpoint of a concentration-inhibition curve. What is called Ki is a measure of affinity in units of concentration, obtained from inhibition or displacement. Low readings indicate tighter binding, high ones weaker binding. With `COc1nn(Cc2ccc(N3CC4CC4C3)nc2C)cc1C(=O)N[C@@H]1CCc2c(C)n[nH]c21` (stereo partly drawn) [Example 20, 1-[(6-{3-Azabicyclo[3.1.0]hexan-3-yl}-2-methyl-pyridin-3-yl)methyl]-3-methoxy-N-[(6R)-3-methyl-1H,4H,5H,6H-cyclopenta[c]pyrazol-6-yl]-1H-pyrazole-4-carboxamide], the IC50 is 1 nM at Human PKK [1] and > 10000 nM against human TK1. This compound showed a Ki on Human PKK [2] of 0.2 nM.

Consider `COCc1nn(Cc2ccc(N3CC4CC4C3)nc2C)cc1C(=O)N[C@@H]1CCc2c(C)n[nH]c21` (stereo partly drawn) [Example 16, 1-[(6-{3-Azabicyclo[3.1.0]hexan-3-yl}-2-methyl-pyridin-3-yl)methyl]-3-(methoxymethyl)-N-[(6R)-3-methyl-1H,4H,5H,6H-cyclopenta[c]pyrazol-6-yl]-1H-pyrazole-4-carboxamide], for which the IC50 was 0.9 nM on Human PKK [1] and > 10000 nM at human TK1. On Human PKK [2], this compound registered a Ki of 0.1 nM.

For the compound `COCc1nn(Cc2ccc(N3CC4C(C3)C4(F)F)nc2C)cc1C(=O)N[C@@H]1CCc2c(C)n[nH]c21` (stereo partly drawn) [Example 15, 1-[(6-{6,6-Difluoro-3-azabicyclo[3.1.0]hexan-3-yl}-2-methylpyridin-3-yl)methyl]-3-(methoxymethyl)-N-[(6R)-3-methyl-1H,4H,5H,6H-cyclopenta[c]-pyrazol-6-yl]-1H-pyrazole-4-carboxamide], the IC50 against Human PKK [1] was 0.8 nM; against human TK1, > 10000 nM. This compound gave a Ki on Human PKK [2] of 0.1 nM.

Turning to `Cc1nc(N2CC3C(C2)C3(F)F)ccc1Cn1cc(C(=O)N[C@@H]2CCc3c(C)n[nH]c32)c2cncnc21` (stereo partly drawn) [Example 13, 7-[(6-{6,6-Difluoro-3-azabicyclo[3.1.0]hexan-3-yl}-2-methylpyridin-3-yl)methyl]-N-[(6R)-3-methyl-1H,4H,5H,6H-cyclopenta[c]pyrazol-6-yl]-7H-pyrrolo[2,3-d]pyrimidine-5-carboxamide], the IC50 on Human PKK [1] is 0.5 nM; against human TK1 it was > 10000 nM. At Human PKK [2], the affinity corresponds to a Ki of 0.1 nM.

In the case of `Cc1nc(N2CC3CC3C2)ccc1Cn1cc(C(=O)N[C@@H]2CCc3c(C)n[nH]c32)c2cncnc21` (stereo partly drawn) [Example 17, 7-[(6-{3-Azabicyclo[3.1.0]hexan-3-yl}-2-methyl-pyridin-3-yl)methyl]-N-[(6R)-3-methyl-1H,4H,5H,6H-cylcopenta[c]pyrazol-6-yl]-7H-pyrrolo[2,3-d]pyrimidine-5-carboxamide], the IC50 at Human PKK [1] is 0.9 nM; against human TK1 it was > 10000 nM. At Human PKK [2], this compound showed a Ki of 0.1 nM.

For `Cc1nc(N2CC3CC3C2)ncc1Cn1cc(C(=O)N[C@@H]2CCc3c(C)n[nH]c32)c2cncnc21` (stereo partly drawn) [Example 23, 7-[(2-{3-Azabicyclo[3.1.0]hexan-3-yl}-4-methyl-pyrimidin-5-yl)methyl]-N-[(6R)-3-methyl-1H,4H,5H,6H-cyclopenta[c]pyrazol-6-yl]-7H-pyrrolo[2,3-d]pyrimidine-5-carboxamide], the values for the half-inhibitory concentration (IC50) against Human PKK [1] and against human TK1 were 2 nM and > 10000 nM, respectively. Further, the affinity at Human PKK [2], expressed as Ki, was 0.3 nM.

As to `Cc1nc(N2CC3CC3C2)ccc1Cn1cc(C(=O)N[C@@H]2CCc3c(C)n[nH]c32)c(C(F)F)n1` (stereo partly drawn) [Example 14, 1-[(6-{3-Azabicyclo[3.1.0]hexan-3-yl}-2-methyl-pyridin-3-y)methyl]-3-(difluoromethyl)-N-[(6R)-3-methyl-1H,4H,5H,6H-cyclopenta[c]pyrazol-6-yl]-1H-pyrazole-4-carboxamide], the results for the IC50 against Human PKK [1] and at human TK1 were 0.5 nM and > 10000 nM, respectively. For the same compound, the Ki at Human PKK [2] is 0.1 nM.

On to `Cc1nc(N2CC3C(C2)C3(F)F)ncc1Cn1cc(C(=O)N[C@@H]2CCc3c(C)n[nH]c32)c2cncnc21` (stereo partly drawn) [Example 21, 7-[(2-{6,6-Difluoro-3-azabicyclo[3.1.0]hexan-3-yl}-4-methylpyrimidin-5-yl)methyl]-N-[(6R)-3-methyl-1H,4H,5H,6H-cyclopenta[c]pyrazol-6-yl]-7H-pyrrolo[2,3-d]pyrimidine-5-carboxamide], for which the IC50 against Human PKK [1] was 1 nM; against human TK1, > 10000 nM. The Ki at Human PKK [2] came to 0.1 nM.

Turning to `Cc1nc(N2CC3CC3C2)ccc1Cn1cc(C(=O)N[C@@H]2CCc3c(C)n[nH]c32)nn1` (stereo partly drawn) [Example 86, 1-[(6-{3-Azabicyclo[3.1.0]hexan-3-yl}-2-methylpyridin-3-yl)methyl]-N-[(6R)-3-methyl-1H,4H,5H,6H-cyclopenta[c]pyrazol-6-yl]-1H-1,2,3-triazole-4-carboxamide], the IC50 is 0.4 nM against Human PKK [1] and > 10000 nM against human TK1.

On to `COCc1nn(Cc2ccc(N3CC4(CC4)C3)nc2C)cc1C(=O)N[C@@H]1CCc2c(C)n[nH]c21` [Example 22, 1-[(6-{5-Azaspiro[2.3]hexan-5-yl}-2-methylpyridin-3-yl)methyl]-3-(methoxymethyl)-N-[(6R)-3-methyl-1H,4H,5H,6H-cyclopenta[c]pyrazol-6-yl]-1H-pyrazole-4-carboxamide], for which the values for the IC50 on Human PKK [1] and at human TK1 were 2 nM and > 10000 nM, respectively. Further, affinity at Human PKK [2] was put at a Ki of 0.1 nM.

`Cc1nc(N2C[C@@H]3[C@@H](C)[C@@H]3C2)ccc1Cn1cc(C(=O)N[C@@H]2CCc3c2n[nH]c3C)cn1` [Example 79, N-[(6R)-3-Methyl-2H,4H,5H,6H-cyclopenta[c]pyrazol-6-yl]-1-({2-methyl-6-[(1R,5S,6R)-6-methyl-3-azabicyclo[3.1.0]hexan-3-yl]pyridin-3-yl}methyl)-1H-pyrazole-4-carboxamide]: the IC50 is 4 nM at Human PKK [1] and > 10000 nM against human TK1.

Consider `Cc1nc(N2CC3(CC3)C2)ccc1Cn1cnc(C(=O)N[C@@H]2CCc3c(C)n[nH]c32)c1` [Example 88, 1-[(6-{5-Azaspiro[2.3]hexan-5-yl}-2-methylpyridin-3-yl)methyl]-N-[(6R)-3-methyl-2H,4H,5H,6H-cyclo-penta[c]pyrazol-6-yl]-1H-imidazole-4-carboxamide], for which the IC50 at Human PKK [1] was 1 nM; against human TK1, > 10000 nM.

Regarding `Cc1nc(N2CC3C(C2)C3(F)F)ncc1Cn1cnc(C(=O)N[C@@H]2CCc3c2n[nH]c3C)c1` (stereo partly drawn) [Example 92, 1-[(2-{6,6-Difluoro-3-azabicyclo[3.1.0]hexan-3-yl}-4-methylpyrimidin-5-yl)methyl]-N-[(6R)-3-methyl-2H,4H,5H,6H-cyclopenta[c]pyrazol-6-yl]-1H-imidazole-4-carboxamide], the IC50 was 1 nM at Human PKK [1] and > 10000 nM against human TK1.

For the compound `Cc1nc(N2C[C@@H]3[C@@H](CO)[C@@H]3C2)ccc1Cn1cc(C(=O)N[C@@H]2CCc3c(C)n[nH]c32)cn1` [Example 94, 1-({6-[(1R,5S,6R)-6-(hydroxymethyl)-3-azabicyclo[3.1.0]hexan-3-yl]-2-methylpyridin-3-yl}methyl)-N-[(6R)-3-methyl-1H,4H,5H,6H-cyclopenta[c]pyrazol-6-yl]-1H-pyrazole-4-carboxamide], the 50% inhibitory concentration (IC50) is 2 nM against Human PKK [1] and > 10000 nM against human TK1.

Consider `Cc1nc(N2CC3CC3C2)ncc1Cn1cc(C(=O)N[C@@H]2CCc3c(C)n[nH]c32)c(C)n1` (stereo partly drawn) [Example 25, 1-[(2-{3-Azabicyclo[3.1.0]hexan-3-yl}-4-methyl-pyrimidin-5-yl)methyl]-3-methyl-N-[(6R)-3-methyl-1H,4H,5H,6H-cyclopenta[c]pyrazol-6-yl]-1H-pyrazole-4-carboxamide], for which the IC50 against Human PKK [1] is 3 nM; at human TK1, > 10000 nM.
